Assay results reported in patent US20250333418A1, “PURINE COMPOUNDS, COMPOSITIONS COMPRISING THEM AND USES THEREOF” (Novo Nordisk A/S, priority 2022, published 2025).

How the values were obtained:
[1] = molecular target: T1, human CB1 receptor (Homo sapiens, UniProt P21554); assay: bioSensAll β-arrestin2 plasma membrane translocation (+GRK2) BRET biosensor assay in HEK293 cells transfected with hCB1; test compound added before EC75-80 of agonist CP55,940 (100 nM); type: cell-based; conditions: βArrestin2 (+GRK2) BRET biosensor, vs CP55,940 100 nM (EC75-80), read-out: CB1 wt βarr2 IC50
T1 construct: expressed in transfected cells; host or cells: HEK293
T1 sequence (P21554 whole entry): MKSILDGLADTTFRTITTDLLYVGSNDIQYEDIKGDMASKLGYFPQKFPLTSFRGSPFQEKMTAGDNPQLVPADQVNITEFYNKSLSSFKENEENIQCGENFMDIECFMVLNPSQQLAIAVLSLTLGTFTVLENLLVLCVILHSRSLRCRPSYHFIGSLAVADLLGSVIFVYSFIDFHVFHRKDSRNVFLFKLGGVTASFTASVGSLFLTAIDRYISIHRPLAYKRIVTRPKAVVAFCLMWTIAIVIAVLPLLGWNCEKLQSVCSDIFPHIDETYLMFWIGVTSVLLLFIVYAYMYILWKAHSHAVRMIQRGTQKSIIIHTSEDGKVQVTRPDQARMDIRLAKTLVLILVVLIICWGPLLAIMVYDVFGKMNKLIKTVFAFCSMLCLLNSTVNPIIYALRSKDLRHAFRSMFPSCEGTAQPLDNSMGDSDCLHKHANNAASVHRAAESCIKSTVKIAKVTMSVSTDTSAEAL
Summary of the method: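 Antagonist mode: compound at 12 concentrations up to 600 nM, then 100 nM CP55,940 3–5 min later, on hCB1-transfected HEK293 cells carrying the β-arrestin2 plasma-membrane biosensor plus GRK2. After overnight 37 °C incubation, 515/400 nm BRET ratio measured with 2 µM methoxy e-CTZ and standardized against positive/negative controls.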

[2] = molecular target: T1, human CB1 receptor; assay: bioSensAll GAPL-Gi2 BRET biosensor assay in HEK293 cells transfected with hCB1; test compound added before EC75-80 of agonist CP55,940 (0.1 nM); type: cell-based; conditions: vs CP55,940 0.1 nM (EC75-80), read-out: CB1 wt Gi2 IC50
Summary of the method: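 Test compounds at 12 doses up to 600 nM preceded a 0.1 nM CP55,940 challenge in hCB1/GAPL-Gi2 HEK293 cells. After overnight 37° C incubation, methoxy e-coelenterazine (2 µM final) was added and the 515/400 nm BRET ratio normalized to positive and negative controls.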

SMILES | IC50 [1] [nM] | IC50 [2] [nM]
CC(C)(O)COc1nc(N2CCNCC(F)(F)C2)c2nc(-c3ccccc3Cl)n(-c3ccc(Cl)cc3)c2n1 [Compound 221] | 30.6 | 4.04
CCOC1(C(N)=O)CCN(c2nc(N3CCC[C@H]3CO)nc3c2nc(-c2ccc(C#N)nc2)n3-c2ccc(Cl)cc2)CC1 [Compound 133, 1-[9-(4-chlorophenyl)-8-(6-cyano-3-pyridyl)-2-[(2S)-2-(hydroxymethyl)pyrrolidin-1-yl]purin-6-yl]-4-ethoxy-piperidine-4-carboxamide] | 1.8 | 0.673
CC1(C(N)=O)CCN(c2nc(N3C[C@H]4C[C@H]4C3)nc3c2nc(-c2ccccc2Cl)n3-c2ccc(Cl)cc2)CC1 [Compound 15, 1-[2-[(1R,5S)-3-azabicyclo[3.1.0]hexan-3-yl]-8-(2-chlorophenyl)-9-(4-chlorophenyl)purin-6-yl]-4-methyl-piperidine-4-carboxamide] | 8.03 | 1.29
CC(C)(O)COc1nc(N2CCC(C)(C(N)=O)CC2)c2nc(-c3ccc(C#N)nc3)n(-c3ccc(Cl)cc3)c2n1 [Compound 109, 1-[9-(4-chlorophenyl)-8-(6-cyano-3-pyridyl)-2-(2-hydroxy-2-methyl-propoxy)purin-6-yl]-4-methyl-piperidine-4-carboxamide] | 61.5 | 13.2
O=S1(=O)CCC(Nc2nc(N3CCC[C@H]3CO)nc3c2nc(-c2ccccc2Cl)n3-c2ccc(Cl)cc2)CC1 [Compound 166] | 1.4 | 0.308
CC1(C(N)=O)CCN(c2nc(OCCO)nc3c2nc(-c2ccccc2Cl)n3-c2ccc(Cl)cc2)CC1 [Compound 78, 1-[8-(2-chlorophenyl)-9-(4-chlorophenyl)-2-(2-hydroxyethoxy)purin-6-yl]-4-methyl-piperidine-4-carboxamide] | 5.68 | 0.995
Cc1ncccc1-c1nc2c(N3CCC(C)(C(N)=O)CC3)nc(OCC(C)(C)O)nc2n1-c1ccc(Cl)cc1 [Compound 104, 1-[9-(4-chlorophenyl)-2-(2-hydroxy-2-methyl-propoxy)-8-(2-methyl-3-pyridyl)purin-6-yl]-4-methyl-piperidine-4-carboxamide] | > 5000 | 48.8
CC(C)(C)OC(=O)NCCOc1nc(N2CCC(C)(C(N)=O)CC2)c2nc(-c3ccccc3Cl)n(-c3ccc(Cl)cc3)c2n1 [Compound 60, tert-butyl N-[2-[6-(4-carbamoyl-4-methyl-1-piperidyl)-8-(2-chlorophenyl)-9-(4-chlorophenyl)purin-2-yl]oxyethyl]carbamate] | 19.3 | 6.96
CN(CCO)c1nc(N2CCO[C@H](CO)C2)c2nc(-c3ccccc3Cl)n(-c3ccc(Cl)cc3)c2n1 [Compound 170] | 3.49 | 0.597
CN(CC1COC1)c1nc(-c2ccc(C(F)(F)F)nc2)c2nc(-c3ccccc3Cl)n(-c3ccc(Cl)cc3)c2n1 [Compound 125] | 16.4 | 4.99
CCOC1(C(N)=O)CCN(c2nc(OCC(C)(C)O)nc3c2nc(-c2ccc(C#N)nc2)n3-c2ccc(Cl)cc2)CC1 [Compound 120, 1-[9-(4-chlorophenyl)-8-(6-cyano-3-pyridyl)-2-(2-hydroxy-2-methyl-propoxy)purin-6-yl]-4-ethoxy-piperidine-4-carboxamide] | 25.4 | 16.9
CC(=O)NC(=N)Nc1nc(N2CCC(C(F)(F)F)CC2)c2nc(-c3ccccc3Cl)n(-c3ccc(Cl)cc3)c2n1 [Compound 34, N—[N-[8-(2-chlorophenyl)-9-(4-chlorophenyl)-6-[4-(trifluoromethyl)-1-piperidyl]purin-2-yl]carbamimidoyl]acetamide] | 17.6 | 6.62
CC(C)Oc1nc(OCC(C)(C)O)nc2c1nc(-c1ccccc1Cl)n2-c1ccc(Cl)cc1 [Compound 86] | 9.49 | 1.38
CC(C)(O)COc1nc(N2CCC(C)(C(N)=O)CC2)c2nc(-c3ccccc3Cl)n(-c3ccccc3)c2n1 [Compound 95, 1-[8-(2-chlorophenyl)-2-(2-hydroxy-2-methyl-propoxy)-9-phenyl-purin-6-yl]-4-methyl-piperidine-4-carboxamide] | 72.4 | 13
CN(CCO)c1nc(N2CCC(C)(C(N)=O)CC2)c2nc(-c3ccccn3)n(-c3ccc(Cl)cc3)c2n1 [Compound 63, 1-[9-(4-chlorophenyl)-2-[2-hydroxyethyl(methyl)amino]-8-(2-pyridyl)purin-6-yl]-4-methyl-piperidine-4-carboxamide] | 65.1 | 9.9
CC(=O)NC1(C)CCN(c2nc(OCC(C)(C)O)nc3c2nc(-c2ccccc2Cl)n3-c2ccc(Cl)cc2)CC1 [Compound 226] | 2.31 | 0.767
CCOC1(C(N)=O)CCCN(c2nc(OCC(C)(C)O)nc3c2nc(-c2ccccc2Cl)n3-c2ccc(Cl)cc2)C1 (single isomer, unassigned) [Compound 216] | 8.61 | 1.77
CC(C)Nc1nc(OCC(C)(C)O)nc2c1nc(-c1ccccc1Cl)n2-c1ccc(Cl)cc1 [Compound 87] | 21.6 | 3.1

SMILES | IC50 [1] [nM] | IC50 [2] [nM]
CC(C)OC1(C(N)=O)CCN(c2nc(OCC(C)(C)O)nc3c2nc(-c2ccccc2Cl)n3-c2ccc(Cl)cc2)CC1 [Compound 215] | 1.64 | 0.707
CN(CCO)c1nc(N2CCC3(CC2)NC(=O)NC3=O)c2nc(-c3ccccc3Cl)n(-c3ccc(Cl)cc3)c2n1 [Compound 190] | 23.7 | 2.66
CN(CCO)c1nc(N2CC3(COC3)C2)c2nc(-c3ccccc3Cl)n(-c3ccc(Cl)cc3)c2n1 [Compound 188] | 1.84 | 0.31
OC[C@H]1CCCN1c1nc(N2CCC(C(F)(F)F)CC2)c2nc(-c3ccccc3Cl)n(-c3ccc(Cl)cc3)c2n1 [Compound 29, [(2R)-1-[8-(2-chlorophenyl)-9-(4-chlorophenyl)-6-[4-(trifluoromethyl)-1-piperidyl]purin-2-yl]pyrrolidin-2-yl]methanol] | > 5000 | 6.92
CN1CCC[C@H]1COc1nc(N2CCC(C)(C(N)=O)CC2)c2nc(-c3ccccc3Cl)n(-c3ccc(Cl)cc3)c2n1 [Compound 117, 1-[8-(2-chlorophenyl)-9-(4-chlorophenyl)-2-[[(2S)-1-methylpyrrolidin-2-yl]methoxy]purin-6-yl]-4-methyl-piperidine-4-carboxamide] | 3.76 | 1.64
CCNC1(C(N)=O)CCN(c2nc(N3CCCCC3)nc3c2nc(-c2ccccc2Cl)n3-c2ccc(Cl)cc2)CC1 [Compound 150] | 8.17 | 2.67
CC1(C(N)=O)CCN(c2nc(N3CC[C@H](O)C3)nc3c2nc(-c2ccccc2Cl)n3-c2ccc(Cl)cc2)CC1 [Compound 94, 1-[8-(2-chlorophenyl)-9-(4-chlorophenyl)-2-[(3S)-3-hydroxypyrrolidin-1-yl]purin-6-yl]-4-methyl-piperidine-4-carboxamide] | 2.41 | 0.82
CC(C)(O)COc1nc(N2CCC(C)(C(N)=O)CC2)c2nc(-c3ccc(C#N)cc3)n(-c3ccc(Cl)cc3)c2n1 [Compound 106, 1-[9-(4-chlorophenyl)-8-(4-cyanophenyl)-2-(2-hydroxy-2-methyl-propoxy)purin-6-yl]-4-methyl-piperidine-4-carboxamide] | 50.7 | 14
CN(CCO)c1nc(N2CC(C)(O)C2)c2nc(-c3ccccc3Cl)n(-c3ccc(Cl)cc3)c2n1 [Compound 74] | 3.02 | 0.574
CC(C)OC1(C(N)=O)CCN(c2nc(OCC(C)(C)O)nc3c2nc(-c2ccc(C#N)nc2)n3-c2ccc(Cl)cc2)CC1 [Compound 135] | 11.7 | 2.3
CCOc1nc(OCC(C)(C)O)nc2c1nc(-c1ccccc1Cl)n2-c1ccc(Cl)cc1 [Compound 99] | 36.2 | 4.51
CN(CCO)c1nc(N2CCC(C)(C(N)=O)CC2)c2nc(-c3ncccc3F)n(-c3ccc(Cl)cc3)c2n1 [Compound 50, 1-[9-(4-chlorophenyl)-8-(3-fluoro-2-pyridyl)-2-[2-hydroxyethyl(methyl)amino]purin-6-yl]-4-methyl-piperidine-4-carboxamide] | 47.8 | 8.41
CC(CO)Oc1nc(N2CCC(C(F)(F)F)CC2)c2nc(-c3ccccc3Cl)n(-c3ccc(Cl)cc3)c2n1 (single isomer, unassigned) [Compound 24, 2-[8-(2-chlorophenyl)-9-(4-chlorophenyl)-6-[4-(trifluoromethyl)-1-piperidyl]purin-2-yl]oxypropan-1-01] | 1.91 | 0.707
CC1(C(N)=O)CCN(c2nc(S(C)(=O)=O)nc3c2nc(-c2ccccc2Cl)n3-c2ccc(Cl)cc2)CC1 [Compound 68, 1-[8-(2-chlorophenyl)-9-(4-chlorophenyl)-2-methylsulfonyl-purin-6-yl]-4-methyl-piperidine-4-carboxamide] | 10.7 | 1.69
C[C@H](O)CNc1nc(N2CCC(C)(C(N)=O)CC2)c2nc(-c3ccccc3Cl)n(-c3ccc(Cl)cc3)c2n1 [Compound 84, 1-[8-(2-chlorophenyl)-9-(4-chlorophenyl)-2-[[(2S)-2-hydroxypropyl]amino]purin-6-yl]-4-methyl-piperidine-4-carboxamide] | 11.7 | 2.1
O=S1(=O)CCC(Nc2nc(-n3ccnc3)nc3c2nc(-c2ccccc2Cl)n3-c2ccc(Cl)cc2)CC1 [Compound 164] | 22.8 | 1.66
CN(CCO)c1nc(N2CCOCC2)c2nc(-c3ccccc3Cl)n(-c3ccc(Cl)cc3)c2n1 [Compound 183] | 0.785 | 0.167
